Test results reported in patent US9045482B2, “Pyrido[4,3-B]indoles and methods of use” (Medivation Technologies, Inc., priority 2009, dated 2015).

How the values were obtained:
[1] = target: T1, human recombinant serotonin (5-Hydroxytryptamine) 5-HT6 receptor (Homo sapiens, UniProt P50406); assay: Serotonin 5-HT6 radioligand binding ([3H]LSD); details: 0.1 μM ligand concentration
T1 construct: expressed in transfected cells; host or cells: human HeLa cells
Method: (§1) Compounds of the invention were incubated with 1.5 nM [3H]Lysergic acid diethylamide (LSD) for 120 min at 37° C. […] Receptor proteins were filtered and washed, the filters were then counted to determine [3H]LSD specifically bound. Compounds were screened at 1 μM or lower, using 1% DMSO as vehicle. Biochemical assay results are presented as the percent inhibition of specific binding in Table 4.

[2] = target: T2, human recombinant serotonin (5-Hydroxytryptamine) 5-HT2A receptor (Homo sapiens, UniProt P28223); assay: Serotonin 5-HT2A radioligand binding ([3H]Ketanserin); details: 0.1 μM ligand concentration
T2 construct: expressed in transfected cells; host or cells: Chinese hamster ovary (CHO-K1) cells
T2 sequence (P28223 whole entry): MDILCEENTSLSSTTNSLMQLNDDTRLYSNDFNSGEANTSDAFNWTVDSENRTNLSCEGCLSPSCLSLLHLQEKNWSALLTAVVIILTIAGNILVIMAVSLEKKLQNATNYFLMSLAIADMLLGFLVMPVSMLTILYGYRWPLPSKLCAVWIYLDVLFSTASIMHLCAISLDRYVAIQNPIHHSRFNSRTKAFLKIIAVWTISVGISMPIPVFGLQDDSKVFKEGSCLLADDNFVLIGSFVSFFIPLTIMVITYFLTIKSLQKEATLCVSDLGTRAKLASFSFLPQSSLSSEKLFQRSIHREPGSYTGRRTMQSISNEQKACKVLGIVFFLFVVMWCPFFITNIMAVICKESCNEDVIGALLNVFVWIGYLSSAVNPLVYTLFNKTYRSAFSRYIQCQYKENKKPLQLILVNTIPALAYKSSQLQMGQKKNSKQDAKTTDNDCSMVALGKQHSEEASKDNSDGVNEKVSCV
Method: (1997), 68:1998] in a 50 mM Tris-HCl buffer, pH 7.4, was used. Compounds of the invention were incubated with 0.5 nM [^3H]Ketanserin for 60 min at 25° C. Non-specific binding was estimated in the presence of 1 μM Mianserin. Receptor proteins were filtered and washed, the filters were then counted to determine [^3H]Ketanserin specifically bound. Compounds were screened at 1 μM or lower, using 1% DMSO as vehicle. Biochemical assay results are presented as the percent inhibition of specific binding in Table 4.

[3] = target: T3, human recombinant adrenergic α2B receptor (Homo sapiens, UniProt P18089); assay: Adrenergic α2B radioligand binding ([3H]Rauwolscine); details: 0.1 μM ligand conc.
T3 construct: expressed in transfected cells; host or cells: Chinese hamster ovary (CHO-K1) cells
T3 sequence (P18089 1-450): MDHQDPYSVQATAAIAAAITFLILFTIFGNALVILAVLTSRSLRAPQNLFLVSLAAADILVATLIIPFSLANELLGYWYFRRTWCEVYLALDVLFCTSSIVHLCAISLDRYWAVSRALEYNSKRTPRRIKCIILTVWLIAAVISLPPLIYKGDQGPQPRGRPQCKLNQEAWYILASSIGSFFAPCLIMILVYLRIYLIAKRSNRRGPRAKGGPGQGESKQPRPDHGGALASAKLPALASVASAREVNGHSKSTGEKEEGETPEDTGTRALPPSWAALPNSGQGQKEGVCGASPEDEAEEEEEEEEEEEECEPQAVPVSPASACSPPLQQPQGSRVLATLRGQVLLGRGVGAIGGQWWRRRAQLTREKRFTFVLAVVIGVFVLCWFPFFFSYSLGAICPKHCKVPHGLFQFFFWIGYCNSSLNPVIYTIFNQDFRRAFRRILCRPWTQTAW
Method: To evaluate in radioligand binding assays the activity of compounds of the invention, human recombinant adrenergic α2B receptor expressed in Chinese hamster ovary (CHO-K1) cells [Uhlen, S. et al., Eur. J. Pharmacol. (1998), 343(1):93] in a modified Tris-HCl buffer (50 mM Tris-HCl, pH 7.4, 12.5 mM MgCl2, 1 mM EDTA, 0.2% BSA) was used. Compounds of the invention were incubated with 2.5 nM [^3H]Rauwolscine for 60 min at 25° C. Non-specific binding was estimated in the presence of 10 μM Prozosin. Receptor proteins were filtered and washed, the filters were then counted to determine [^3H]Rauwolscine specifically bound. Compounds were screened at 1 μM or lower, using 1% DMSO as vehicle. Compounds of the invention were tested in this biochemical assay. Biochemical assay results for representative compounds were presented as the percent inhibition of specific binding in Table 3.

[4] = target: human recombinant serotonin (5-Hydroxytryptamine) 5-HT7 receptor (Homo sapiens, UniProt P34969); assay: Serotonin 5-HT7 radioligand binding ([3H]LSD); details: 0.1 μM ligand concentration
Sequence of human recombinant serotonin (5-Hydroxytryptamine) 5-HT7 receptor (P34969 whole entry): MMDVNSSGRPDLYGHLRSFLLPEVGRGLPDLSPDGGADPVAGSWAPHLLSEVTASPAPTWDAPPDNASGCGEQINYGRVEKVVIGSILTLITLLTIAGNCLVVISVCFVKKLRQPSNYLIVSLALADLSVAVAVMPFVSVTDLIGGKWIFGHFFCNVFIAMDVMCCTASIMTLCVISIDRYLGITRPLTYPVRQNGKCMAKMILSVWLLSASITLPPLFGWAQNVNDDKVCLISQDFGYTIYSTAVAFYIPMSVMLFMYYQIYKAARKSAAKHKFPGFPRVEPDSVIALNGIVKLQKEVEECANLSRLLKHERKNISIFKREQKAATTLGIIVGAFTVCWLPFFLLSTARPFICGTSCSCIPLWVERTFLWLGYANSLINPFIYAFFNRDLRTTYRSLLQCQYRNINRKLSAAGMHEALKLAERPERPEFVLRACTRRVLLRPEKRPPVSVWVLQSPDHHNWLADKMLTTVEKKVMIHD
Method: as §1, with “of” for “of the”, “5.5” for “1.5”, “[^3H]Lysergic” for “[3H]Lysergic”, “2 h” for “120 min”, “25°” for “37°”, “[^3H]LSD” for “[3H]LSD”

T1 sequence (P50406 whole entry): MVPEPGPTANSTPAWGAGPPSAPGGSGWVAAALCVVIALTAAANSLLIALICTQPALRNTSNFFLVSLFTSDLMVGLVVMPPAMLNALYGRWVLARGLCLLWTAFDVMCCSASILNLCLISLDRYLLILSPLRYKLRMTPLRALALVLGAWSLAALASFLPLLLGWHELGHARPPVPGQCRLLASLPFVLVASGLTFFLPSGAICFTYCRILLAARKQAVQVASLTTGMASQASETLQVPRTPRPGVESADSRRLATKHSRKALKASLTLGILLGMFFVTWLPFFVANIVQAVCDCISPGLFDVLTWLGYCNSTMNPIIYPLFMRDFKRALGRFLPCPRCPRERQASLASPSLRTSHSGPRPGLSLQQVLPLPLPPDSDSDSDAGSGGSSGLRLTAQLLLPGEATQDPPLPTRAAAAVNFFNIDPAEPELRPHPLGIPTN

| SMILES | Percent Inhibition of ligand binding Serotonin 5-HT6 [1] [%] | Percent Inhibition of ligand binding Serotonin 5-HT2A [2] [%] | Percent Inhibition of ligand binding Adrenergic α2B [3] [%] | Percent Inhibition of ligand binding Serotonin 5-HT7 [4] [%] |
| --- | --- | --- | --- | --- |
| Cc1cnc2c(c1)c1c(n2CC(=O)N2CCCCC2)CCN2CCCC12 (centres unmarked) [Compound 41, 2-(10-methyl-2,3,5,6-tetrahydro-1H-pyrido[3′,2′:4,5]pyrrolo[2,3-g]indolizin-7(11cH)-yl)-1-(piperidin-1-yl)ethanone] | 8 | −2 | 14 | −5 |
| Cc1cnc2c(c1)c1c(n2CC(=O)N2CCCCC2)CC2CCCN2C1 (centres unmarked) [Compound 42, 2-(3-methyl-8,9,9a,10-tetrahydro-5H-pyrido[3′,2′:4,5]pyrrolo[3,2-f]indolizin-11(7H)-yl)-1-(piperidin-1-yl)ethanone] | 2 | 1 | 3 | −1 |
